Assay results taken from US20240024488A1, “COMPOUNDS AND USES THEREOF” (Foghorn Therapeutics Inc., priority 2020, published 2024).

What was measured:
[1] = biological target: T1, HiBit-BRG1 fusion protein (Homo sapiens, UniProt P51532); assay: HiBiT-BRG1 cell-based degradation assay (Nano-Glo HiBiT Lytic Detection, 24 h); conditions: HeLa cell line expressing HiBit-BRG1 and LgBit; for Dmax: read-out: BRG1 HiBit Degradation Maximum (%); for DC50: read-out: BRMG1 HiBit Degradation IC50
T1 construct: expressed in transfected cells
Procedure, shortened: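 Seed 5000 HeLa HiBit-BRG1/LgBit cells per well; treat 24 h; equilibrate 15 min at room temperature; add Nano-Glo HiBiT lytic reagent, shake 10 min, read luminescence. Percent degradation is scaled between DMSO and 2 μM reference degrader wells.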

HiBit-BRM fusion protein = biological target: T2, HiBit-BRM fusion protein (Homo sapiens, UniProt P51531); assay: HiBiT-BRM cell-based degradation assay (Nano-Glo HiBiT Lytic Detection, 24 h); conditions: HeLa cell line expressing HiBiT-BRM; for DC50: read-out: BRM HiBit Degradation IC50
T2 construct: expressed in transfected cells
Procedure, shortened: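 Luminescence from reconstituted NanoBiT luciferase in lysed HeLa HiBiT-BRM cells served as the measure of remaining BRM after 24 h treatment. Compounds were tested from 30 μM final downward in 3-fold steps. DMSO and 2 μM of a standard BRM/BRG1 degrader defined the scale limits.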

T2 sequence (P51531 whole entry, the tested form may be a part): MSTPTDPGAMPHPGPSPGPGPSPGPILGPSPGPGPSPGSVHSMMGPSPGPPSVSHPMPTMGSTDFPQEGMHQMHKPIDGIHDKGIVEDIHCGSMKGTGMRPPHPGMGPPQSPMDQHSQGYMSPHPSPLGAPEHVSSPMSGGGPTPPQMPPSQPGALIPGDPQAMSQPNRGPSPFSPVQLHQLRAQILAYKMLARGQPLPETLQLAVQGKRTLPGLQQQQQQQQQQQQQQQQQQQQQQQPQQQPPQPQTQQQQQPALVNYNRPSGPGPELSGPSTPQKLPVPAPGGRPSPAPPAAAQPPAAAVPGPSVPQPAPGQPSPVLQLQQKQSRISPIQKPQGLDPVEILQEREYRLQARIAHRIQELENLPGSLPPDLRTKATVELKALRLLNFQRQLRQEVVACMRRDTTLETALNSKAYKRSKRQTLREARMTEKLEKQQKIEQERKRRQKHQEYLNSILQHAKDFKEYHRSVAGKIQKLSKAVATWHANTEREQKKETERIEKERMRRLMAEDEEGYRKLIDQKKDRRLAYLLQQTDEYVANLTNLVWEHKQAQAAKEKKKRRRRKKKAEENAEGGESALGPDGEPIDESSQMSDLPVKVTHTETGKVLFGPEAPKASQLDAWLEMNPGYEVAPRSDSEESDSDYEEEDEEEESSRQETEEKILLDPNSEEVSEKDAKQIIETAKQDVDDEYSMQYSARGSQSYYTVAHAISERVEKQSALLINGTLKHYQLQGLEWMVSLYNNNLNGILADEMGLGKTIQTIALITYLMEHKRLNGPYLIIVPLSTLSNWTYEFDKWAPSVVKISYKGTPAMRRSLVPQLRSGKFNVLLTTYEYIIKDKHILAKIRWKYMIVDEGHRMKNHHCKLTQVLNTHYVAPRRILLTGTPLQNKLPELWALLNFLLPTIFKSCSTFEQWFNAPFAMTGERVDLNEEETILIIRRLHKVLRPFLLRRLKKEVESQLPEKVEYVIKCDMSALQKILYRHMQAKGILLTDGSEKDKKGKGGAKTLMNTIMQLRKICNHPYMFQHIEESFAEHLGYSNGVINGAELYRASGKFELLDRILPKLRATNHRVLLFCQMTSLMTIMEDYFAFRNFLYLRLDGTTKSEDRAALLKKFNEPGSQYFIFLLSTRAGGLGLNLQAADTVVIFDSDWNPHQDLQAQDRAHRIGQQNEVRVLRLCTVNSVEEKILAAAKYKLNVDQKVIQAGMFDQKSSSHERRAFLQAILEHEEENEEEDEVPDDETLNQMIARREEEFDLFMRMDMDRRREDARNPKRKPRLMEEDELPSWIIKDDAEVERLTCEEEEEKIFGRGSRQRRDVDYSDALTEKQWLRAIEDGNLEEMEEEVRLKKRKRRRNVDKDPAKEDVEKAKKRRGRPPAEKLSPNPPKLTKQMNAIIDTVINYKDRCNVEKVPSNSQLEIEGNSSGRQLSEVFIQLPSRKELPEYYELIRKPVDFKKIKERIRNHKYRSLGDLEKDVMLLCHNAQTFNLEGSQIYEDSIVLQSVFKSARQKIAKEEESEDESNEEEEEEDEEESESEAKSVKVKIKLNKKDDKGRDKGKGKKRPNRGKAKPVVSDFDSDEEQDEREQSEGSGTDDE
T1 sequence (P51532 whole entry, the tested form may be a part): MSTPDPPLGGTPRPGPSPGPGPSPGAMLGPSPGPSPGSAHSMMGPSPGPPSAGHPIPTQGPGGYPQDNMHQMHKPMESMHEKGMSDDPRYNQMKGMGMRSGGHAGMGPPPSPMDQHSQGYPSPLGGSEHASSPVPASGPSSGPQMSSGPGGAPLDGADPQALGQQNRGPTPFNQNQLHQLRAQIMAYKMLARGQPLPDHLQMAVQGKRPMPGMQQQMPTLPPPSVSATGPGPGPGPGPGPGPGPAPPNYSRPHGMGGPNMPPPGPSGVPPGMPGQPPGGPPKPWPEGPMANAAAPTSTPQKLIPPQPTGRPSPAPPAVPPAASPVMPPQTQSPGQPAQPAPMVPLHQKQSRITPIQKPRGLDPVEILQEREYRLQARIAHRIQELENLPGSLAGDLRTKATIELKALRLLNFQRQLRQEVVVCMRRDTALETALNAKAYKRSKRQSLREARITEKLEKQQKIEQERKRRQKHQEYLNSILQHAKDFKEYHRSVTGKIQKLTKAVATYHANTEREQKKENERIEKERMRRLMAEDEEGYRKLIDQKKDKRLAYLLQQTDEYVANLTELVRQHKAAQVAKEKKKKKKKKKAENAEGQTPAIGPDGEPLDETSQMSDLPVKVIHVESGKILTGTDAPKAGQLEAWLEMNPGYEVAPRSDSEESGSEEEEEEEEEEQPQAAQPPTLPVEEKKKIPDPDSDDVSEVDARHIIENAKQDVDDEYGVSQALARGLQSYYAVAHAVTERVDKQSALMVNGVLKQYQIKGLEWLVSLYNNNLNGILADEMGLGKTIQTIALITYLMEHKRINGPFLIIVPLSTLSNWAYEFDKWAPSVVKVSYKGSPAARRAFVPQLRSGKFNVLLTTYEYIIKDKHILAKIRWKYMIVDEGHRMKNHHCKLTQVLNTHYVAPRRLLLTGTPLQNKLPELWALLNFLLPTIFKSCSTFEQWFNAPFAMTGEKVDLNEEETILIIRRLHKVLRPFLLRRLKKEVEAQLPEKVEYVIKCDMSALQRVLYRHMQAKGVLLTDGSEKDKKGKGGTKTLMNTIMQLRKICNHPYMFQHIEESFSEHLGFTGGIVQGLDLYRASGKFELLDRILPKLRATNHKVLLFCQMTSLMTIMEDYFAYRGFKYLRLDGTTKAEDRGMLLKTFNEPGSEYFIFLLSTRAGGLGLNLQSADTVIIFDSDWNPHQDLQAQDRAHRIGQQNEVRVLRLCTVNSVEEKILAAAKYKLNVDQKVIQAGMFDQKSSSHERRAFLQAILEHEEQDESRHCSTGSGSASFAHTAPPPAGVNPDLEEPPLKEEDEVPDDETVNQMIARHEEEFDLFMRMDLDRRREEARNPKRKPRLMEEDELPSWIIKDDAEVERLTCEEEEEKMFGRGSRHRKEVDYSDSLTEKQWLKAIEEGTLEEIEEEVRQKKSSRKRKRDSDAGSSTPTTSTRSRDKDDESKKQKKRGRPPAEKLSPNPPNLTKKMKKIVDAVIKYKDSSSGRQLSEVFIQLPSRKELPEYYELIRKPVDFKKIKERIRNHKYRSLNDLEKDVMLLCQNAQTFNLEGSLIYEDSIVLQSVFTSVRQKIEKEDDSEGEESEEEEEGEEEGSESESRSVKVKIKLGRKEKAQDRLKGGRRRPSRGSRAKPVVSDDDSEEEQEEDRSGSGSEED

Row | Dmax [1] | DC50 [1] | DC50 (HiBit-BRM fusion protein) | Compound | BRM HiBit Degradation Maximum (%) (HiBit-BRM fusion protein)
1 | > 75% | > 10 nM | > 10 nM | Cc1ncsc1-c1ccc([C@H](C)NC(=O)[C@@H]2C[C@@H](O)CN2C(=O)[C@@H](c2cc(N3CCC(c4cnc(N5CCC(c6c[nH]c7nnc(-c8ccccc8O)cc67)CC5)nc4)CC3)no2)C(C)C)cc1 (single isomer, unassigned) [Compound 92] | A (“A” indicates maximum degradation ≥ 75%)
2 | < 50% | – | – | Cc1ncsc1-c1ccc([C@H](C)NC(=O)[C@@H]2C[C@@H](O)CN2C(=O)[C@H](c2cc(N3C[C@@H]4C[C@H]3CN4C(=O)[C@@H]3CCc4[nH]c5nnc(-c6ccccc6O)cc5c4C3)no2)C(C)C)cc1 (single isomer, unassigned) [Compound 100] | C (“C” indicates maximum degradation < 50%)
3 | < 50% | – | – | Cc1ncsc1-c1ccc([C@H](C)NC(=O)[C@@H]2C[C@@H](O)CN2C(=O)[C@@H](c2cc(N3C[C@@H]4C[C@H]3CN4C(=O)[C@@H]3CCc4[nH]c5nnc(-c6ccccc6O)cc5c4C3)no2)C(C)C)cc1 (single isomer, unassigned) [Compound 102] | A (“A” indicates maximum degradation ≥ 75%)
4 | > 75% | > 10 nM | < 10 nM | Cc1ncsc1-c1ccc([C@H](C)NC(=O)C2C[C@@H](O)CN2C(=O)[C@@H](c2cc(OCCN3C[C@H]4C[C@@H](c5[nH]c6nnc(-c7ccccc7O)cc6c5C)C[C@H]4C3)no2)C(C)C)cc1 (single isomer, unassigned) [Compound 108] | A (“A” indicates maximum degradation ≥ 75%)
5 | > 75% | > 10 nM | < 10 nM | Cc1ncsc1-c1ccc([C@H](C)NC(=O)C2C[C@@H](O)CN2C(=O)[C@@H](c2cc(OCCN3C[C@H]4C[C@H](c5[nH]c6nnc(-c7ccccc7O)cc6c5C)C[C@H]4C3)no2)C(C)C)cc1 (single isomer, unassigned) [Compound 112] | A (“A” indicates maximum degradation ≥ 75%)
6 | < 50% | – | – | Cc1ncsc1C12CC(CNC(=O)[C@@H]3C[C@@H](O)CN3C(=O)[C@H](c3cc(OCCN4CC(c5cc6cc(-c7ccccc7O)nnc6[nH]5)C4)no3)C(C)C)(C1)C2 (single isomer, unassigned) [Compound 114] | C (“C” indicates maximum degradation < 50%)
7 | < 50% | – | – | Cc1ncsc1C12CC(CNC(=O)[C@@H]3C[C@@H](O)CN3C(=O)[C@@H](c3cc(OCCN4CC(c5cc6cc(-c7ccccc7O)nnc6[nH]5)C4)no3)C(C)C)(C1)C2 (single isomer, unassigned) [Compound 115] | C (“C” indicates maximum degradation < 50%)
8 | < 50% | – | – | CC(C)[C@H](C(=O)N1C[C@H](O)C[C@H]1C(=O)N[C@@H](C)c1ccc(-c2ccccc2F)cc1)c1cc(OCCN2CC(c3cc4cc(-c5ccccc5O)nnc4[nH]3)C2)no1 (single isomer, unassigned) [Compound 117] | C (“C” indicates maximum degradation < 50%)
9 | > 50% | > 1000 nM | > 10 nM | CC(C)[C@@H](C(=O)N1C[C@H](O)C[C@H]1C(=O)N[C@@H](C)c1ccc(-c2ccccc2F)cc1)c1cc(OCCN2CC(c3cc4cc(-c5ccccc5O)nnc4[nH]3)C2)no1 (single isomer, unassigned) [Compound 119] | A (“A” indicates maximum degradation ≥ 75%)
10 | < 50% | – | – | Cc1ncsc1-c1ccc([C@H](C)NC(=O)[C@@H]2C[C@@H](O)CN2C(=O)[C@H](c2cc(CN3CCc4[nH]c5nnc(-c6ccccc6O)cc5c4C3)no2)C(C)C)cc1 (single isomer, unassigned) [Compound 135] | C (“C” indicates maximum degradation < 50%)
11 | < 50% | – | – | Cc1ncsc1-c1ccc([C@H](C)NC(=O)[C@@H]2C[C@@H](O)CN2C(=O)[C@@H](c2cc(CN3CCc4[nH]c5nnc(-c6ccccc6O)cc5c4C3)no2)C(C)C)cc1 (single isomer, unassigned) [Compound 136] | C (“C” indicates maximum degradation < 50%)
